Consider one compound from patent US12275685B2, “Oligo-benzamide analogs and their use in cancer treatment” (Board of Regents, The University of Texas System, priority 2018, dated 2025).

In one assay the test system is D2A1 xenografts. The experiment in a line: D2A1 syngeneic tumor model. The conditions noted are these: 10 mg/kg daily. In kind it is in vivo, mice. How it is done: (§1) FIGS. 35A-P: ERX-41 is potent against TNBC in vivo. (FIG. 35A) Following establishment of subcutaneous MDA-MB-231 xenograft tumors (200 mm^3), 10 mg/kg single dose ERX-41 was administered either by oral or intraperitoneal route. The tumor was harvested 0, 0, 5, 1, 5, 3, 6 and 24 h after drug administration and the drug levels assayed by LC-MS/MS and graphed. (FIGS. 35B-E) Following establishment of MDA-MB-231 xenografts in mammary fat pad in vivo (100 mm^3 size), daily administration of 10 mg/kg ERX-41 or vehicle control (N=8 each group) was initiated. Tumor volumes were measured using digital calipers and graphed (FIG. 35B). Tumor weights (FIG. 35C), body weights (FIG. 35D) and extirpated tumors (FIG. 35E) at end of study are also shown. (FIGS. 35F-H) Following establishment of D2A1 syngeneic xenografts in mammary fat pad in vivo (100 mm^3 size), daily administration of 10 mg/kg ERX-41 or vehicle control (N=8 each group) was initiated. Tumor volumes were measured using digital calipers and graphed (FIG. 35F) along with tumor weights (FIG. 35G) and body weights (FIG. 35H). (FIGS. 35I-P) Effect of ERX-41 on the growth (FIG. 351, FIG. 35K, FIG. 35M, FIG. 35O) and tumor weights (FIG. 35J, FIG. 35L, FIG. 35N, FIG. 35P) of four distinct TNBC PDXs compared to vehicle. *p<0.05. **p<0.01; ***p<0.001. […]

The subject of assay [1] is 22 human preclinical TNBC cell line models. The experiment in a line: CellTiter-Glo cell viability assay in TNBC cell lines. Format: cell-based. The settings on record: 22 TNBC cell lines, read-out: IC50, CellTiter-Glo cell viability assays. The text has this: (§2) FIGS. 34A-C: Dose response curve of ERX-41 in multiple TNBC. cell lines using WST-1 assays (FIG. 34A) and CellTiter-Glo assays (FIG. 34B). […] Quantification of the number of dead cells over time seen with live cell imaging in MDAMB-231 and HMEC cells is shown.
(§3) To evaluate the generalizability of the inventors' findings, they evaluated ERX-41 in a large number of TNBC and ERa-positive cell lines.

For the next assay, the system named is TNBC cells. The experiment in a line: Live cell imaging with SYTOX Green, TNBC. In kind it is cell-based. The settings on record: within 30 hours of treatment.
Excerpt: as §2, §3

Assay [2] deals with 22 human preclinical TNBC cell line models. As to the kind of experiment: WST assay in TNBC cell lines. Format: cell-based. The conditions noted are these: 22 TNBC cell lines, read-out: IC50, WST assays.
Excerpt: as §2, §3

For a further assay, the system named is primary TNBC tumors. The experiment in a line: Ex vivo patient derived explant (PDE) cultures of TNBC. Format: cell-based, human. How it is done: FIGS. 38A-E: LIPA is a viable molecular target in TNBC. (FIG. 38A) Kaplan-Meier curves show the correlation between expression levels of LAL with survival outcomes using a TCGA dataset with numerical tabulation below. (FIGS. 38B-D) Following surgical extirpation, primary TNBC tumors were cultured ex vivo either with vehicle or 1 μM ERX-41, as shown by the schematic (FIG. 38B). The effect on proliferation index (ki67) (FIG. 38C) and apoptosis markers (cleaved caspase 3) (FIG. 38D) is graphed. Representative immunohistochemical images of the effect of ERX-41 on ki67, cleaved caspase 3 and UPR genes shown (FIG. 38E).
ERX-41 has activity on human TNBC tumors. To ascertain that ERX-41 would have activity against primary TNBC tumors, the inventors leveraged their prior significant experience with the ex vivo patient derived explant (PDE) cultures […]. The PDE cultures, maintains the native tissue architecture and better recapitulates the heterogeneity of human TNBC in a laboratory setting.

For another assay, the system named is TNBC PDX tumors. As to the kind of experiment: TNBC patient derived xenografts (PDX). Format: in vivo, mice. The settings on record: 10 mg/kg/day oral. The method, then: FIGS. 7A-7C show effect of TK41 in triple negative breast cancer in patient derived xenografts. TNBC patient derived xenografts (n=6) were established in nude mice and treated with vehicle (circle markers) or 10 mg/kg/day/oral ERX-41 (i.e., TK41; square markers).
FIGS. 32A-C show established breast PDX tumors treated either with vehicle (circles) or ERX-41 (squares). Tumor volume is graphed (left), distribution of tumor weights at necropsy (middle panel). *p<0.05; […].
as §1, with “(FIGS. 35F-H) Following establishment of D2A1 syngeneic xenografts in mammary fat pad in vivo (100 mm^3 size), daily administration of 10 mg/kg ERX-41 or vehicle control (N=8 each group) was initiated.” left out, “35H).” for “35H). (FIGS. 35I-P) Effect of ERX-41 on the growth (FIG. 351, FIG. 35K, FIG. 35M, FIG. 35O) and tumor weights (FIG. 35J, FIG. 35L, FIG. 35N, FIG. 35P) of four distinct TNBC PDXs compared to vehicle. *p<0.05. **p<0.01; ***p<0.001.”

For another assay, the system named is HMEC cells. The experiment in a line: ER stress induction in HMEC cells. In kind it is cell-based, human. The settings on record: normal HMEC cells. The text has this:
The basal level of expression of endoplasmic reticulum stress and unfolded protein response correlates with TK41 activity (FIG. 28). Modulation of the level of these stress proteins affects the activity of TK41. Thus, the basal level of expression of endoplasmic reticulum stress and unfolded protein response proteins may serve as a biomarker to predict response to TK41. […] Without wishing to be bound by any particular theory, the mechanism of action of TK41 may operate comprise targeting either ER or TLX and inducing endoplasmic reticulum stress, subsequent apoptosis, and blocking autophagic fusion (FIG. 30).
ERX-41 induces endoplasmic reticulum stress in TNBC. To understand the mechanism of action of ERX-41 in TNBC, the inventors performed unbiased RNA sequencing studies in three TNBC (SUM-159, MDA-MB-231, and BT549) and normal HMEC cell lines (FIGS. 36A-C). […] Heatmaps show the induction of ER stress and UPR genes in these three TNBC cell lines (FIG. 36E). Evaluation of ER stress induction was then performed with ultrastructural studies using electron microscopy (EM) studies.

The structures appear in SMILES notation. Entries after “also recorded” stand apart in the source; their conditions may differ.

Turning to `CC(C)COc1cc(C(=O)Nc2ccc(C(=O)N[C@H]3CC[C@H](C)CC3)cc2OCC(C)C)ccc1NC(=O)c1ccc([N+](=O)[O-])c(OCCO)c1` [TK41], the “growth of D2A1 xenografts” value in the assay with D2A1 xenografts is recorded as “significantly reduce the growth”. Moreover, the IC50 in assay [1] was under 250 nM; in assay [2], under 500 nM. In the assay on TNBC cells, the “cell death, share of cells” value was over 90%. The “apoptosis (cleaved caspase 3 staining)” value with primary TNBC tumors (1 μM ex vivo) is reported as “increased apoptosis”. The “proliferation (ki67 staining)” value in the assay on primary TNBC tumors (1 μM ex vivo) is “decreased proliferation”. Further, in the assay on primary TNBC tumors (within 24 h after treatment), the “UPR pathway markers by immunohistochemistry” value was “enhanced pPERK, CHOP (protein product of DDIT3 gene) and peiF2a staining”. Also, the “growth of TNBC PDX tumors” value is reported as “significantly decreased the growth” with TNBC PDX tumors and “significantly decreased the rates of growth; also recorded: has activity against TNBC PDX tumors” with TNBC PDX tumors (listed as ERX-41). Moreover, the “induction of endoplasmic reticulum stress in HMEC” value in the assay with HMEC cells is “does not induce endoplasmic reticulum stress”; in the assay with HMEC cells (listed as ERX-41), “unable to induce ER stress”.
